Target: P70S6K (T412E mutant) (Homo sapiens (Human), UniProt P23443, T412E)
Test: P70S6K enzyme assay
Format: biochemical
Conditions: 3 nM P70S6K T412E mutant, 24 μM ATP, 1 μM FITC-AHA-AKRRRLSSLRA-OH substrate peptide, 90 min at 25° C.
Procedure, shortened: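 IC50s come from mobility-shift separation of phospho-product from FITC-AHA-AKRRRLSSLRA-OH substrate (1 μM) after the reaction was quenched with 10 mM EDTA. The reaction used 3 nM T412E-mutant enzyme and 24 μM ATP, running 90 min at 25° C in 100 mM Hepes pH 7.5 buffer.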

P70S6K (T412E mutant), sequence (P23443 whole entry T412E): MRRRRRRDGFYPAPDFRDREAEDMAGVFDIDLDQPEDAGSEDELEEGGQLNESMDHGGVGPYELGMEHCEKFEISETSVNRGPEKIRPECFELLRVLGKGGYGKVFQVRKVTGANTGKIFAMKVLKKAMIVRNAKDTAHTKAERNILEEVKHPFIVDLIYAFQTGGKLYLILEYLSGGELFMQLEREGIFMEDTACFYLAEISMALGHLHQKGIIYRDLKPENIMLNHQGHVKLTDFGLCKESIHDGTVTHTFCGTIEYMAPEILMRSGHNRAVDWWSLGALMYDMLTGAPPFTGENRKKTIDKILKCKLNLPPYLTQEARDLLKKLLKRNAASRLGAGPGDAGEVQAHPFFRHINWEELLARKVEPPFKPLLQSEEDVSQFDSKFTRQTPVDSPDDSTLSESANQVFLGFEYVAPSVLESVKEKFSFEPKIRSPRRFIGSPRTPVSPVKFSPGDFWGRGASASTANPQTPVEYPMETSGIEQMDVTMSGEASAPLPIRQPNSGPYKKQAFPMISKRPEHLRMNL

Going from NCC(c1ccc(Cl)c(F)c1)N1CCN(c2ncnc(N)c2-c2cn[nH]c2)CC1 (centres unmarked) [Example 187, 6-(4-(2-amino-1-(4-chloro-3-fluorophenyl)ethyl)piperazin-1-yl)-5-(1H-pyrazol-4-yl)pyrimidin-4-amine] to NCC(c1cccnc1)N1CCN(c2ncnc(N)c2-c2ccc(F)cc2)CC1 (centres unmarked) [Example 193, 6-[4-(2-Amino-1-pyridin-3-yl-ethyl)-piperazin-1-yl]-5-(4-fluoro-phenyl)-pyrimidin-4-ylamine], the IC50 rises from 6.1 nM to 31 nM (5.1-fold).

First: CCc1c(N)ncnc1N1CCN(C(CN)C2CCCCC2)CC1 (centres unmarked) [Example 188, 6-[4-(2-Amino-1-cyclohexyl-ethyl)-piperazin-1-yl]-5-ethyl-pyrimidin-4-ylamine]
Second: N#CC(C1CCCCC1)N1CCN(c2ncnc(N)c2-c2ccc(F)cc2)CC1 (centres unmarked) [Example 191, {4-[6-Amino-5-(4-fluoro-phenyl)-pyrimidin-4-yl]-piperazin-1-yl}-cyclohexyl-acetonitrile]
The IC50 of the first is higher: greater than 1000 nM for the first, 200 nM for the second.

Compared with N#CC(c1ccc(C(F)(F)F)nc1)N1CCN(c2ncnc(N)c2-c2ccc(F)cc2)CC1 (centres unmarked) [Example 189, {4-[6-Amino-5-(4-fluoro-phenyl)-pyrimidin-4-yl]-piperazin-1-yl}-(6-trifluoromethyl-pyridin-3-yl)-acetonitrile], NCC(c1ccc(C(F)(F)F)nc1)N1CCN(c2ncnc(N)c2-c2ccc(F)cc2)CC1 (centres unmarked) [Example 194, 6-{4-[2-Amino-1-(6-trifluoromethyl-pyridin-3-yl)-ethyl]-piperazin-1-yl}-5-(4-fluoro-phenyl)-pyrimidin-4-ylamine] is 14-fold lower in IC50: 140 nM for the first, 9.8 nM for the second. The second is the more potent here.

First: N#CC(c1cccnc1)N1CCN(c2ncnc(N)c2-c2ccc(F)cc2)CC1 (centres unmarked) [Example 190, {4-[6-Amino-5-(4-fluoro-phenyl)-pyrimidin-4-yl]-piperazin-1-yl}-pyridin-3-yl-acetonitrile]
Second: NCC(c1cc(C(F)(F)F)ccc1F)N1CCN(c2ncnc(N)c2-c2ccc(F)cc2)CC1 (centres unmarked) [Example 192, 6-{4-[2-Amino-1-(2-fluoro-5-trifluoromethyl-phenyl)-ethyl]-piperazin-1-yl}-5-(4-fluoro-phenyl)-pyrimidin-4-ylamine]
The IC50 of the first is 18-fold higher: 230 nM for the first, 13 nM for the second. The second is the more potent here.

Compared with Nc1ncnc(N2CCC(N)(CNC(=O)c3ccc(F)cc3F)C2)c1Br (centres unmarked) [Example 195, N-[3-Amino-1-(6-amino-5-bromo-pyrimidin-4-yl)-pyrrolidin-3-ylmethyl]-2,4-difluoro-benzamide], Nc1ncnc(N2CCC(N)(CNC(=O)c3ccc(F)cc3F)CC2)c1Br [Example 207, N-[4-Amino-1-(6-amino-5-bromo-pyrimidin-4-yl)-piperidin-4-ylmethyl]-2,4-difluoro-benzamide] is 45-fold higher in IC50: 3.3 nM for the first, 150 nM for the second. The first is the more potent here.

First: N#Cc1c(N)ncnc1N1CCC(N)(CNC(=O)c2ccc(F)cc2F)C1 (centres unmarked) [Example 196, N-[3-Amino-1-(6-amino-5-cyano-pyrimidin-4-yl)-pyrrolidin-3-ylmethyl]-2,4-difluoro-benzamide]
Second: NC(=O)c1c(N)ncnc1N1CCC(N)(CNC(=O)c2ccc(F)cc2F)C1 (centres unmarked) [Example 197, 4-Amino-6-{3-amino-3-[(2,4-difluoro-benzoylamino)-methyl]-pyrrolidin-1-yl}-pyrimidine-5-carboxamide]
The IC50 of the first is 11-fold lower: 50 nM for the first, 530 nM for the second. The first is the more potent here.

Going from Nc1ncnc(N2CCC(N)(CNC(=O)c3ccc(F)cc3F)C2)c1-c1ccc(F)cc1 (centres unmarked) [Example 198, N-{3-Amino-1-[6-amino-5-(4-fluoro-phenyl)-pyrimidin-4-yl]-pyrrolidin-3-ylmethyl}-2,4-difluoro-benzamide] to Nc1ncnc(N2CCC(N)(CNC(=O)c3ccc(F)cc3F)CC2)c1-c1ccc(F)cc1 [Example 208, N-{4-Amino-1-[6-amino-5-(4-fluoro-phenyl)-pyrimidin-4-yl]-piperidin-4-ylmethyl}-2,4-difluoro-benzamide], the IC50 rises from 4.8 nM to 46 nM (9.6-fold). The first is the more potent here.

N#Cc1ccc(-c2c(N)ncnc2N2CCC(N)(CNC(=O)c3ccc(F)cc3F)C2)cc1 (centres unmarked) [Example 199, N-{3-Amino-1-[6-amino-5-(4-cyano-phenyl)-pyrimidin-4-yl]-pyrrolidin-3-ylmethyl}-2,4-difluoro-benzamide] and Nc1ncnc(N2CCC(N)(CNC(=O)c3ccc(F)cc3F)C2)c1-c1ccc(C(F)(F)F)cc1 (centres unmarked) [Example 202, N-{3-Amino-1-[6-amino-5-(4-trifluoromethyl-phenyl)-pyrimidin-4-yl]-pyrrolidin-3-ylmethyl}-2,4-difluoro-benzamide] are within 1.5-fold of each other in IC50: 11 nM for the first, 9.1 nM for the second.

Going from Nc1ncnc(N2CCC(N)(CNC(=O)c3ccc(F)cc3F)C2)c1-c1ccc(Oc2ccccc2)cc1 (centres unmarked) [Example 200, N-{3-Amino-1-[6-amino-5-(4-phenoxy-phenyl)-pyrimidin-4-yl]-pyrrolidin-3-ylmethyl}-2,4-difluoro-benzamide] to Nc1ncnc(N2CCC(N)(CNC(=O)c3ccc(F)cc3F)C2)c1-c1ccccc1 (centres unmarked) [Example 203, N-[3-Amino-1-(6-amino-5-phenyl-pyrimidin-4-yl)-pyrrolidin-3-ylmethyl]-2,4-difluoro-benzamide], the IC50 falls from 120 nM to 5.3 nM (23-fold).

Compared with COc1ccc(-c2c(N)ncnc2N2CCC(N)(CNC(=O)c3ccc(F)cc3F)C2)cn1 (centres unmarked) [Example 201, N-{3-Amino-1-[6-amino-5-(6-methoxy-pyridin-3-yl)-pyrimidin-4-yl]-pyrrolidin-3-ylmethyl}-2,4-difluoro-benzamide], Nc1ncnc(N2CCC(N)(CNC(=O)c3ccc(F)cc3F)C2)c1-c1cccc(F)c1 (centres unmarked) [Example 204, N-{3-Amino-1-[6-amino-5-(3-fluoro-phenyl)-pyrimidin-4-yl]-pyrrolidin-3-ylmethyl}-2,4-difluoro-benzamide] is 3.7-fold lower in IC50: 9.5 nM for the first, 2.6 nM for the second. The second is the more potent here.

First: Nc1ncnc(N2CCC(N)(CNC(=O)c3ccc(F)cc3F)C2)c1-c1ccncc1 (centres unmarked) [Example 205, N-[3-Amino-1-(6-amino-5-pyridin-4-yl-pyrimidin-4-yl)-pyrrolidin-3-ylmethyl]-2,4-difluoro-benzamide]
Second: Nc1ncnc(N2CCC(N)(CNC(=O)c3ccc(F)cc3F)C2)c1-c1ccc(N2CCNCC2)nc1 (centres unmarked) [Example 206, N-{3-Amino-1-[6-amino-5-(6-piperazin-1-yl-pyridin-3-yl)-pyrimidin-4-yl]-pyrrolidin-3-ylmethyl}-2,4-difluoro-benzamide]
The IC50 of the first is 40-fold lower: 25 nM for the first, 1000 nM for the second. The first is the more potent here.

Going from CCc1c(N)ncnc1N1CCC(N)(C(=O)N[C@@H](CCO)c2ccc(Cl)cc2)CC1 [Example 214, 4-Amino-1-(6-amino-5-ethyl-pyrimidin-4-yl)-piperidine-4-carboxylic acid [(S)-1-(4-chloro-phenyl)-3-hydroxy-propyl]-amide] to CC[C@H](NC(=O)C1(N)CCN(c2ncnc(N)c2Cl)CC1)c1ccc(Cl)cc1 [Example 215, 4-Amino-1-(6-amino-5-chloro-pyrimidin-4-yl)-piperidine-4-carboxylic acid [(S)-1-(4-chloro-phenyl)-propyl]-amide], the IC50 falls from 450 nM to 190 nM (2.4-fold).

Compared with Nc1ncnc(N2CCC(N)(C(=O)N[C@H](c3ccc(Cl)cc3)C(F)(F)F)CC2)c1Cl [Example 216, 4-Amino-1-(6-amino-5-chloro-pyrimidin-4-yl)-piperidine-4-carboxylic acid [(R)-1-(4-chloro-phenyl)-2,2,2-trifluoroethyl]-amide], N#Cc1c(N)ncnc1N1CCC(N)(C(=O)N[C@H](c2ccc(Cl)cc2)C(F)(F)F)CC1 [Example 220] is 3.9-fold higher in IC50: 820 nM for the first, 3200 nM for the second. The first is the more potent here.

First: NC(=O)C[C@H](NC(=O)C1(N)CCN(c2ncnc(N)c2Cl)CC1)c1ccc(Cl)cc1 [Example 217, 4-Amino-1-(6-amino-5-chloro-pyrimidin-4-yl)-piperidine-4-carboxylic acid [(S)-2-carbamoyl-1-(4-chloro-phenyl)ethyl]-amide]
Second: N#Cc1c(N)ncnc1N1CCC(N)(C(=O)N[C@@H](CC(N)=O)c2ccc(Cl)cc2)CC1 [Example 221, 4-Amino-1-(6-amino-5-cyano-pyrimidin-4-yl)-piperidine-4-carboxylic acid [(S)-2-carbamoyl-1-(4-chloro-phenyl)-ethyl]-amide]
The IC50 of the first is 5.9-fold higher: 820 nM for the first, 140 nM for the second.

C[C@H](NC(=O)C1(N)CCN(c2ncnc(N)c2C#N)CC1)c1ccc(Cl)cc1 [Example 218, 4-Amino-1-(6-amino-5-cyano-pyrimidin-4-yl)-piperidine-4-carboxylic acid [(S)-1-(4-chloro-phenyl)-ethyl]-amide] and CC[C@H](NC(=O)C1(N)CCN(c2ncnc(N)c2C#N)CC1)c1ccc(Cl)cc1 [Example 219, 4-Amino-1-(6-amino-5-cyano-pyrimidin-4-yl)-piperidine-4-carboxylic acid [(S)-1-(4-chloro-phenyl)-propyl]-amide] are within 1.5-fold of each other in IC50: 200 nM for the first, 140 nM for the second.

Going from C[C@H](NC(=O)C1(N)CCN(c2ncnc(N)c2Cl)CC1)c1ccc(Cl)cc1 [Example 222, 4-Amino-1-(6-amino-5-chloro-pyrimidin-4-yl)-piperidine-4-carboxylic acid [(S)-1-(4-chloro-phenyl)-ethyl]-amide] to C[C@H](NC(=O)C1(N)CCN(c2ncnc(N)c2-c2cn[nH]c2)CC1)c1ccc(Cl)cc1 [Example 224, 4-Amino-1-[6-amino-5-(1H-pyrazol-4-yl)-pyrimidin-4-yl]-piperidine-4-carboxylic acid [(S)-1-(4-chloro-phenyl)-ethyl]-amide], the IC50 falls from 620 nM to 87 nM (7.1-fold). The second is the more potent here.

Compared with Nc1ncnc(N2CCC(N)(C(=O)N[C@@H](CCO)c3ccc(C(F)(F)F)cc3)CC2)c1Cl [Example 223, 4-Amino-1-(6-amino-5-chloro-pyrimidin-4-yl)-piperidine-4-carboxylic acid [(S)-3-hydroxy-1-(4-trifluoromethyl-phenyl)-propyl]-amide], N#Cc1c(N)ncnc1N1CCC(N)(C(=O)N[C@@H](CCO)c2ccccc2)CC1 [Example 226, 4-Amino-1-(6-amino-5-cyano-pyrimidin-4-yl)-piperidine-4-carboxylic acid ((S)-3-hydroxy-1-phenyl-propyl)-amide] is 27-fold lower in IC50: 22000 nM for the first, 820 nM for the second.

CC[C@H](NC(=O)C1(N)CCN(c2ncnc(N)c2-c2cn[nH]c2)CC1)c1ccc(Cl)cc1 [Example 225, 4-Amino-1-[6-amino-5-(1H-pyrazol-4-yl)-pyrimidin-4-yl]-piperidine-4-carboxylic acid [(S)-1-(4-chloro-phenyl)-propyl]-amide] gave an IC50 of 78 nM.
